# Experimental data: ChEMBL document CHEMBL3507680, “University of Dundee, Gates Library screen for HepG2 cell viability”
# Assay: Human HepG2 cell viability assay in 384 well format
# Type: toxicity, cell-based
# Set-up: dose 125 nL, time 70.5 hour; concentration not given beside the values
# Conditions: HepG2 cells, read-out: Inhibition
row,SMILES,cytotoxicity at 70.5 h [%]
1,O=C(CCn1cc(Cl)cn1)Nc1ncccn1,-4.36
2,CCCN1CCN(C(=O)c2ccn(COc3ccc(F)cc3)n2)CC1,-3.36
3,O=C(c1ccn(COc2ccc(F)cc2)n1)N1CCCCCC1,-3.63
4,Cc1cc(NC(=O)C(C)Oc2ccc3c(c2)OCO3)no1 (stereo not drawn),-6.37
5,Cc1nn(CC(=O)Nc2ccon2)c(C)c1Br,-11.8
6,CCC/N=c1/c(NC(=O)NCCCOC)c(O)oc2ccccc12,29.3
7,CCn1nccc1CNC(=O)CCC1CCCC1,18.7
8,CCCn1nccc1C(=O)Nc1ncc(C)s1,-11.3
9,CCN(CC)CCCNC(=O)c1nn(CC)cc1Cl,2.52
10,CCN(CC)CCCNC(=O)C(C)n1cc(Br)cn1 (stereo not drawn),-1.37
11,NC(=O)C1CCN(C(=O)c2ccc(Cn3cc(Br)cn3)cc2)CC1,16
12,O=C(Nc1cnn(Cc2ccc(F)cc2Cl)c1)C1CC1,-3.99
13,CSc1[nH]nc(NC(=O)c2ccncc2)c1C#N,-1.59
14,CCN(Cc1nonc1C)C(=O)Cn1nc(C(F)(F)F)cc1C1CC1,-5.16
15,CCN(Cc1nonc1C)C(=O)Cn1nc(C(F)(F)F)cc1C,-9.27
16,CC(=O)c1ccc(NC(=O)C(C)Cn2cc(Br)cn2)cc1 (stereo not drawn),-5.47
17,CC(C)(C)NC(=O)c1ccn(COc2ccccc2Cl)n1,-5.39
18,Cc1nnsc1C(=O)N1CCC(c2nc3ccccc3[nH]2)CC1,24
19,CCCN(C(=O)COCC)c1cccc(C)c1,-4.58
20,COCCNCc1ccc(OCC(=O)NC(C)(C)C)cc1,19.6
21,CC(C(=O)N1CCN(c2ccc(F)cc2)CC1)n1cc(Br)cn1 (stereo not drawn),-8.98
22,COCC(=O)Nc1cnn(COc2ccc(F)cc2Cl)c1,2.16
23,CC(NC(=O)c1ccc(Cl)cc1)c1nnc(SCC(N)=O)n1C (stereo not drawn),-8
24,Cn1cc(I)c(C(=O)NCCCn2cc(Br)cn2)n1,0.223

row,SMILES,cytotoxicity at 70.5 h [%]
1,Cn1cc(Br)c(C(=O)NCCCn2cc(Br)cn2)n1,6.5
2,CCn1ncc(CN2CCN(C(=O)Cn3cc(Br)c(C)n3)CC2)c1C,-9.19
3,Cc1nn(Cc2ccc(C(=O)NCCCN3CCCC3=O)o2)c(C)c1Cl,-10.6
4,Cc1cc(NC(=O)C(C)Cn2cc(Br)cn2)no1 (stereo not drawn),1.29
5,CC(C)(C)NC(=O)c1ccn(COc2c(Cl)cccc2Cl)n1,-0.674
6,O=C(c1ccnn1COc1ccc(Cl)cc1)N1CCSCC1,-11
7,CS(=O)(=O)Nc1cnn(Cc2cccc(Cl)c2)c1,-7.33
8,COc1ccc(OC)c(C(C)NS(=O)(=O)c2cn(C)nc2C)c1 (stereo not drawn),-3.29
9,CCn1cc(NS(=O)(=O)c2ccc(Br)s2)c(C(=O)NCC(C)C)n1,-0.598
10,Cc1nn(C)cc1-c1cc(C(F)F)nc2sc(C(N)=O)c(N)c12,7.12
11,Cc1c(Br)c(C(F)F)nn1C(C)C(=O)O (stereo not drawn),-10.2
12,COC(=O)c1ccn(COc2ccccc2Cl)n1,-9.21
13,Cc1c(-c2cc(C(F)F)nc3sc(C(N)=O)c(N)c23)cnn1C,-1.99
14,Cc1c(-c2cc(-c3cnn(C)c3C)n(CC(=O)NC3CC3)n2)cnn1C,19.6
15,COc1cc(NC(=O)NCC2CCCO2)cc(OC)c1 (stereo not drawn),16.9
16,Cn1c(=O)n(C)c2nc(Br)c(CC(=O)c3ccccc3)n2c1=O,-4.55
17,Fc1ccccc1NCc1nc2n(n1)CCCCC2,-19.3
18,Cc1ccc(C)c(NCc2nc3n(n2)CCCCC3)c1,-15.6
19,CCOc1ccc(N2CCCN=C2NC(=O)c2ccc(Cl)cc2)cc1,-1.22
20,CN1CC(Oc2ccccc2)=NC(SCC(=O)Nc2ccccc2Cl)=N1,5.43
21,OC1=C2C(=Nc3n[nH]c(O)c3C2c2ccccc2Cl)CCC1 (stereo not drawn),9.03
22,CSc1nc(N)c2c(n1)N=C1COC(O)=C1C2c1cccc(O)c1 (stereo not drawn),0.964
23,Cc1cccc(NC(C)C(=O)Nc2nccs2)c1 (stereo not drawn),-14.6
24,CC(=O)N1CCN(c2ncnc3cc4c(cc23)OCCO4)CC1,-6.91

row,SMILES,cytotoxicity at 70.5 h [%]
1,CC(C)C(=O)N1CCN(c2ncnc3cc4c(cc23)OCCO4)CC1,-1.97
2,Cc1nn(C)c2c(N3CCN(C(=O)C(C)C)CC3)ncnc12,-5.46
3,Cc1ccccc1C(=O)NC(C)c1cnn(C)c1 (stereo not drawn),27.8
4,CCn1cc(C(=O)N2CCOCC2)cn1,-3.04
5,CC(C)N1CCC(c2nccnc2Nc2cnccn2)CC1,17.9
6,Cc1cncnc1C1CCN(CC(N)=O)CC1,-4.96
7,O=C(c1n[nH]c(=O)c2ccccc12)N1CCC(O)(CN2CCOCC2)C1 (stereo not drawn),14.5
8,Nc1cccc(C2CN(C(=O)CN3CCOCC3)CCO2)n1 (stereo not drawn),-4.5
9,CO[C@H]1CN(S(=O)(=O)c2ccc(F)cc2)C[C@@]12CCCO2,36.6
10,CCc1nnc(Nc2cc(C)nc(C3CCN(c4ccncn4)C3)n2)s1 (stereo not drawn),12.4
11,O=C(NCCc1ccc(F)cc1)C1CN(C(=O)Cn2cncn2)C1,-13.2
12,CC(=O)N1CCOC(c2c(C(=O)NC(C)(C)C)sc3ccccc23)C1 (stereo not drawn),-13.1
13,Cc1nn(C)cc1NC(=O)CC1CCN(C(=O)Cc2ccccc2)CC1,-4.98
14,Cc1c[nH]nc1C1CCN(C(=O)C2CCC2)CC1,-8.63
15,CC(C)S(=O)(=O)N1C[C@@H](c2ccccc2)[C@H]2[C@H]1CCCCCN2C,-5.45
16,COc1ccc(-c2cc(C(=O)NCCn3ccnc3)n(C)n2)cc1,19.2
17,CNc1cc(C)nc(C2CCN(CCO)CC2)n1,-6.23
18,COCCN1CCN(c2nc(O)cc(Cc3ccccc3F)n2)CC1,-5.81
19,O=C1CCC[C@]2(CN(S(=O)(=O)C3CCCCC3)C[C@H]2c2cccnc2)N1,-3.41
20,CC(=O)N1CCC(c2cccc(-c3cccc(C(=O)O)c3)n2)CC1,-0.201
21,CC(=O)N1CCC(c2cccc(Oc3ccccc3)n2)CC1,-3.81
22,COCC(=O)N1CCC(c2cc(N(C)C)cc(C)n2)CC1,25.5
23,Cc1ccc(N2CCOC(C)(C(=O)N(C)C)C2)nn1 (stereo not drawn),-6.16
24,Cc1nn(C)cc1NC(=O)CC1CCN(CCc2ccccc2)CC1,-7.48

row,SMILES,cytotoxicity at 70.5 h [%]
1,Cc1cc(N2CCOC(C)(C(=O)N(C)C)C2)ncn1 (stereo not drawn),-6.62
2,O=C(c1ccc(=O)[nH]n1)N1CCNCC1c1ccccc1 (stereo not drawn),-2.98
3,NCc1cccc(-c2cccnc2C(=O)NCCCN2CCOCC2)c1,-3.76
4,CNc1nccnc1C1CN(Cc2ccc3[nH]ccc3c2)CCO1 (stereo not drawn),-2.11
5,CC(C)(C)n1nnnc1CN(Cc1ccccc1)Cc1ccccc1Cl,-5.12
6,O=C(c1cc2c(s1)CCC2)N1CCC(c2ccncc2)CC1,15.8
7,COCCNc1nnc(-c2ccccn2)s1,-4.27
8,COc1ncc(CN(C)C2CCN(C(C)C)CC2)cn1,8.08
9,c1cc(-c2cnc(NC3CC3)nc2[C@H]2CCCO2)ccn1,-7.2
10,c1cc(-c2cncc(C3CCNCC3)n2)n[nH]1,-6.89
11,CC(C)(C)C(=O)N1CCCC1c1nccnc1Cl (stereo not drawn),-8.54
12,O=C(NCc1ccccn1)c1cnc(C2CCCN2)cn1 (stereo not drawn),-4.69
13,Cc1nccc(C2CCCN(C(=O)c3cncnc3)C2)n1 (stereo not drawn),-5.03
14,CC(=O)N1CCCC(c2nccnc2-c2ccc(CO)cc2)C1 (stereo not drawn),-5.35
15,COCC(=O)N1CCN(C)C(=O)C(Cc2ccccc2-c2cccs2)C1 (stereo not drawn),1.61
16,CC(C)(C)n1nnnc1CN(Cc1ccccc1)Cc1ccc(Cl)cc1,8.17
17,COCCN1CCCC(c2ncc(C(=O)N(C)C)c(C)n2)C1 (stereo not drawn),-1.17
18,Cn1c(=O)cc(C(=O)NC(Cc2ccsc2)c2cccnc2)[nH]c1=O (stereo not drawn),-3.19
19,Cc1cnc(-c2nc(O)c3c(n2)CN(C(=O)C2CCCC2)CC3)cn1,-1.77
20,COc1ccccc1-c1ccccc1CC1(C(=O)O)CCNCC1,0.76
21,Fc1cccc(CN2CCC(c3noc(-c4ccccn4)n3)CC2)c1F,-0.639
22,O=C(Cn1cccc2cc(-c3ccc(F)cc3)nc1-2)N1CCC(O)CC1,3.41
23,CC(=O)N[C@@H]1CN(C(=O)CC2CCOCC2)C[C@H]1O,-1.61
24,Clc1ccc(CN(CCN2CCOCC2)Cc2cccnc2)c(Cl)c1,-5.57

row,SMILES,cytotoxicity at 70.5 h [%]
1,Cc1ncc(CN(C)C)c(C2CCCN2c2ncccn2)n1 (stereo not drawn),-7.95
2,Cc1cc(CCC2CN(CC3(O)CCCCC3)CCO2)ncn1 (stereo not drawn),19.4
3,O=C(Cc1cccc(O)c1)N1CCCC(O)(CN2CCCC2)CC1 (stereo not drawn),-6.1
4,c1ccc(CN2CCN(Cc3cnc(C4CCCCO4)nc3)CC2)cc1 (stereo not drawn),1.9
5,c1nc(C2CCCCO2)ncc1CN1CCOCC1 (stereo not drawn),-4.04
6,CC(=O)N1CCCC(Cc2cnc(-c3c(C)nn(C)c3C)cn2)C1 (stereo not drawn),-7.67
7,COc1cccc(S(=O)(=O)N2C[C@H](OC)[C@]3(CCCO3)C2)c1,-4.33
8,CO[C@H]1CN(S(=O)(=O)c2ccccc2F)C[C@@]12CCCO2,-7.14
9,O=C(c1ccc(-n2cccn2)nc1)N1CCC(c2ccn[nH]2)C1 (stereo not drawn),-8.23
10,CS(=O)(=O)CCN1CCN(c2ccc(Cl)cn2)CC1,1.44
11,O=C(NCCc1nncn1C1CC1)C1(c2ccccc2)CCC1,-5.9
12,COCCS(=O)(=O)NC(C)c1cccc(-n2cccn2)c1 (stereo not drawn),0.445
13,CCC(NC(=O)c1ccc(OC)nn1)c1nc(C(F)(F)F)cs1 (stereo not drawn),-6.03
14,Cc1cc(C2CCNCC2)nc(-c2ccsc2)n1,-8.24
15,CC(C)(C)C(=O)N1C[C@H](c2ccsc2)[C@H]2CN(C3CCCCC3)CC[C@H]21,-3.27
16,CNC(=O)c1cc(C2CCCNC2)n[nH]1 (stereo not drawn),21.1
17,CNCC(=O)N1CCCC1c1n[nH]cc1-c1ccccc1F (stereo not drawn),0.833
18,CC1CCN(C(=O)C2(Cc3cc(C4CCOC4)no3)CCNCC2)CC1 (stereo not drawn),-1.77
19,NCC(=O)N1CCCC1c1n[nH]cc1-c1ccccc1F (stereo not drawn),25.4
20,CCn1cncc1CN1CCN(CC2(c3ccc(C)cc3)CC2)CC1,12
21,Cc1cc(C)nc(C2CCCNC2)n1 (stereo not drawn),17.9
22,CN(Cc1cccc2cccnc12)C1CCS(=O)(=O)C1 (stereo not drawn),24.2
